In patent US20230293458A1, “MULTIBIOTIC AGENTS AND METHODS OF USING THE SAME” (Flagship Pioneering Innovations V, Inc., priority 2017, published 2023):

How the values were obtained:
[1] = Stability of multibiotic agents in Simulated Intestinal Fluid (SIF); type: in vitro ADME; settings: simulated intestinal fluid pH 6.7 with pancreatin, 37° C., 1 μM
Protocol: Assay 2. Stability of multibiotic agents in Simulated Intestinal Fluid (SIF). This assay can be used to assess the stability of a multibiotic agent in a small intestine. Phosphate buffer was prepared by dissolving 0.42 g of sodium hydroxide pellets and 3.95 g of monobasic sodium phosphate monohydrate and 6.19 g of sodium chloride in ultrapure water (MilliQ®, Millipore Sigma, Darmstadt, Germany). The pH was adjusted to 6.7 using aq. HCl and aq. NaOH, as necessary, and the solution was diluted with ultrapure water to produce 1 L of the pH 6.7 buffer. 112 mg FaSSIF powder (Biorelevant™, London, UK) was dissolved in 50 mL of the pH 6.7 buffer. 2 to 3 mL of the resulting solution were then added to 500 mg pancreatin (Millipore Sigma, Darmstadt, Germany). The resulting mixture was agitated by finger tapping the vessel containing the mixture until milky suspension formed. At this time, the remainder of the 50 mL FaSSiF/pH 6.7 buffer solution was added. The resulting suspension was flipped upside down 10 times to produce SIF, which was used fresh. Test compounds are dissolved in DMSO stock to 1 mM. An aliquot of the DMSO stock solution is removed and diluted in the SIF media in 15 mL falcon tubes to produce a mixture with a tested compound concentration of 1 μM. A 1 mL aliquot is immediately removed and diluted once with 1 volume of acetonitrile for T0 timepoint. The mixture is sealed and agitated at 37° C. in an incubator. Aliquots (1 mL) are removed at regular intervals and immediately quenched by the addition of 1 volume of acetonitrile. The resulting samples are analyzed by LC/MS to determine degradation rates.

[2] = Stability of multibiotic agents in Simulated Gastric Fluid (SGF); type: in vitro ADME; settings: simulated gastric fluid pH 1.6 with pepsin, 37° C., 1 μM
Protocol: Assay 3. Stability of multibiotic agents in Simulated Gastric Fluid (SGF). This assay can be used to assess the stability of a multibiotic agent in a stomach.
Medium was prepared by dissolving 2 g of sodium chloride in 0.6 L in ultrapure water (MilliQ®, Millipore Sigma, Darmstadt, Germany). The pH was adjusted to 1.6 with 1 N hydrochloric acid, and the volume was then adjusted to 1 L with purified water.
60 mg FaSSIF powder (Biorelevant™, London, UK) were dissolved in 500 mL buffer (above). Pepsin was added (0.1 mg/mL) (Millipore Sigma, Darmstadt, Germany), and the solution was stirred. The resulting SGF media were used fresh for each experiment.
Test compounds were dissolved in DMSO stock to 1 mM. An aliquot of the DMSO stock solution was removed and diluted in the SGF Media in 15 mL falcon tubes to generate a total compound concentration of 1 μM. A 1 mL aliquot was immediately removed and diluted once with 1 volume of acetonitrile for T0 timepoint. The mixture was sealed and mixed at 37° C. in an incubator. Aliquots (1 mL) were removed at regular intervals and immediately quenched by the addition of 1 volume of acetonitrile. The resulting samples were analyzed by LC/MS to determine degradation rates in SGF.

## CC(O)CCOC(=O)c1cc(N)ccc1O (stereo in doubt) [Example 112, [(3R)-3-hydroxybutyl] 5-amino-2-hydroxy-benzoate]
[1]
  Assay 3 (SIF) (% @ Remaining 4 hours): C (>75% of the tested compound remaining)
[2]
  Assay 2 (SGF) (% Remaining @ 4 hours): C (>75% of the tested compound remaining)

## CCCC(=O)OCC(OC(=O)CCC)[C@@H](OC(=O)CCC)[C@H](OC(=O)CCC)C(OC(=O)CCC)C(=O)O (stereo in doubt) [Example 113, (2S,3S,4R,5S)-2,3,4,5,6-penta(butanoyloxy)hexanoic acid]
[1]
  Assay 3 (SIF) (% @ Remaining 4 hours): B (25-75% of the tested compound remaining)
[2]
  Assay 2 (SGF) (% Remaining @ 4 hours): C (>75% of the tested compound remaining)

## COc1cc(/C=C/C(=O)CC(=O)/C=C/c2ccc(OC(=O)Cc3c[nH]c4ccccc34)c(OC)c2)ccc1OC(=O)Cc1c[nH]c2ccccc12 [Example 1, [4-[(1E,6E)-7-[4-[2-(1H-indol-3-yl)acetyl]oxy-3-methoxy-phenyl]-3,5-dioxo-hepta-1,6-dienyl]-2-methoxy-phenyl] 2-(1H-indol-3-yl)acetate]
[1]
  Assay 3 (SIF) (% @ Remaining 4 hours): C (>75% of the tested compound remaining)
[2]
  Assay 2 (SGF) (% Remaining @ 4 hours): C (>75% of the tested compound remaining)

## CCCC(=O)Oc1ccc(N)cc1C(=O)O [Example 2, 5-amino-2-butanoyloxy-benzoic acid]
[1]
  Assay 3 (SIF) (% @ Remaining 4 hours): C (>75% of the tested compound remaining)
[2]
  Assay 2 (SGF) (% Remaining @ 4 hours): C (>75% of the tested compound remaining)

## CCCC(=O)Oc1ccc(/N=N/c2ccc(OC(=O)CCC)c(C(=O)O)c2)cc1C(=O)O [Example 3, 2-butanoyloxy-5-[(E)-(4-butanoyloxy-3-carboxy-phenyl)azo]benzoic acid]
[1]
  Assay 3 (SIF) (% @ Remaining 4 hours): A (<25% of the tested compound remaining)
[2]
  Assay 2 (SGF) (% Remaining @ 4 hours): A (<25% of the tested compound remaining)

## CCCC(=O)Oc1ccc(/C=C/c2cc(OC(=O)CCC)cc(OC(=O)CCC)c2)cc1 [Example 7, [4-[(E)-2-[3,5-di(butanoyloxy)phenyl]vinyl]phenyl] butanoate]
[1]
  Assay 3 (SIF) (% @ Remaining 4 hours): B (25-75% of the tested compound remaining)
[2]
  Assay 2 (SGF) (% Remaining @ 4 hours): C (>75% of the tested compound remaining)

## O=C(Cc1c[nH]c2ccccc12)Oc1ccc(/C=C/c2cc(OC(=O)Cc3c[nH]c4ccccc34)cc(OC(=O)Cc3c[nH]c4ccccc34)c2)cc1 [Example 8, [4-[(E)-2-[3,5-bis[[2-(1H-indol-3-yl)acetyl]oxy]phenyl]vinyl]phenyl] 2-(1H-indol-3-yl)acetate]
[1]
  Assay 3 (SIF) (% @ Remaining 4 hours): C (>75% of the tested compound remaining)
[2]
  Assay 2 (SGF) (% Remaining @ 4 hours): C (>75% of the tested compound remaining)

## O=C(CCCc1ccccc1)Oc1ccc(/C=C/c2cc(OC(=O)CCCc3ccccc3)cc(OC(=O)CCCc3ccccc3)c2)cc1 [Example 9, [4-[(E)-2-[3,5-bis(4-phenylbutanoyloxy)phenyl]vinyl]phenyl] 4-phenylbutanoate]
[1]
  Assay 3 (SIF) (% @ Remaining 4 hours): C (>75% of the tested compound remaining)

## CCCC(=O)Oc1ccc(/C=C/C(=O)CC(=O)/C=C/c2ccc(OC(=O)CCC)c(OC)c2)cc1OC [Example 14, [4-[(1E,6E)-7-(4-butanoyloxy-3-methoxy-phenyl)-3,5-dioxo-hepta-1,6-dienyl]-2-methoxy-phenyl] butanoate]
[1]
  Assay 3 (SIF) (% @ Remaining 4 hours): C (>75% of the tested compound remaining)
[2]
  Assay 2 (SGF) (% Remaining @ 4 hours): C (>75% of the tested compound remaining)

## CC(=O)Oc1ccc2c(c1)oc(=O)c1cc(OC(C)=O)c(OC(C)=O)cc12 [Example 51, (8,9-diacetoxy-6-oxo-benzo[c]chromen-3-yl) acetate]
[1]
  Assay 3 (SIF) (% @ Remaining 4 hours): C (>75% of the tested compound remaining)
[2]
  Assay 2 (SGF) (% Remaining @ 4 hours): C (>75% of the tested compound remaining)

## O=C(Cc1c[nH]c2ccccc12)Oc1ccc2c(c1)oc(=O)c1cc(OC(=O)Cc3c[nH]c4ccccc34)c(OC(=O)Cc3c[nH]c4ccccc34)cc12 [Example 55, [8,9-bis[[2-(1H-indol-3-yl)acetyl]oxy]-6-oxo-benzo[c]chromen-3-yl] 2-(1H-indol-3-yl)acetate]
[1]
  Assay 3 (SIF) (% @ Remaining 4 hours): B (25-75% of the tested compound remaining)
[2]
  Assay 2 (SGF) (% Remaining @ 4 hours): C (>75% of the tested compound remaining)

## O=C(CCc1c[nH]c2ccccc12)Oc1ccc2c(c1)oc(=O)c1cc(OC(=O)CCc3c[nH]c4ccccc34)c(OC(=O)CCc3c[nH]c4ccccc34)cc12 [Example 56, [8,9-bis[3-(1H-indol-3-yl)propanoyloxy]-6-oxo-benzo[c]chromen-3-yl] 3-(1H-indol-3-yl)propanoate]
[1]
  Assay 3 (SIF) (% @ Remaining 4 hours): C (>75% of the tested compound remaining)
[2]
  Assay 2 (SGF) (% Remaining @ 4 hours): C (>75% of the tested compound remaining)

## CCCCCCCC(=O)Oc1ccc2c(c1)oc(=O)c1cc(OC(=O)CCCCCCC)c(OC(=O)CCCCCCC)cc12 [Example 57, [8,9-di(octanoyloxy)-6-oxo-benzo[c]chromen-3-yl] octanoate]
[2]
  Assay 2 (SGF) (% Remaining @ 4 hours): C (>75% of the tested compound remaining)

## CCCCCCCC(=O)Oc1ccc(/C=C/c2cc(OC(=O)CCCCCCC)cc(OC(=O)CCCCCCC)c2)cc1 [Example 69, [4-[(E)-2-[3,5-di(octanoyloxy)phenyl]vinyl]phenyl] octanoate]
[2]
  Assay 2 (SGF) (% Remaining @ 4 hours): C (>75% of the tested compound remaining)

## CCCCCCCCCC(=O)Oc1ccc(/C=C/c2cc(OC(=O)CCCCCCCCC)cc(OC(=O)CCCCCCCCC)c2)cc1 [Example 70, [4-[(E)-2-[3,5-di(decanoyloxy)phenyl]vinyl]phenyl] decanoate]
[2]
  Assay 2 (SGF) (% Remaining @ 4 hours): C (>75% of the tested compound remaining)

## CCCC(=O)O[C@H](C)CC(=O)Oc1ccc(/C=C/c2cc(OC(=O)C[C@@H](C)OC(=O)CCC)cc(OC(=O)C[C@@H](C)OC(=O)CCC)c2)cc1 [Example 72, [4-[(E)-2-[3,5-bis[[(3R)-3-butanoyloxybutanoyl]oxy]phenyl]vinyl]phenyl] (3R)-3-butanoyloxy-butanoate]
[1]
  Assay 3 (SIF) (% @ Remaining 4 hours): B (25-75% of the tested compound remaining)
[2]
  Assay 2 (SGF) (% Remaining @ 4 hours): C (>75% of the tested compound remaining)

## CCCC(=O)O[C@H](C)CC(=O)Oc1ccc(/C=C/C(=O)CC(=O)/C=C/c2ccc(OC(=O)C[C@@H](C)OC(=O)CCC)c(OC)c2)cc1OC [Example 73, [4-[(1E,6E)-7-[4-[(3R)-3-butanoyloxybutanoyl]oxy-3-methoxy-phenyl]-3,5-dioxo-hepta-1,6-dienyl]-2-methoxy-phenyl] (3R)-3-butanoyloxybutanoate]
[1]
  Assay 3 (SIF) (% @ Remaining 4 hours): B (25-75% of the tested compound remaining)
[2]
  Assay 2 (SGF) (% Remaining @ 4 hours): C (>75% of the tested compound remaining)

## CC(C)(COC(=O)CCc1c[nH]c2ccccc12)[C@@H](OC(=O)CCc1c[nH]c2ccccc12)C(=O)NCCCOC(=O)CCc1c[nH]c2ccccc12 [Example 93, 3-[[(2R)-2,4-bis[3-(1H-indol-3-yl)propanoyloxy]-3,3-dimethyl-butanoyl]amino]propyl 3-(1H-indol-3-yl)propanoate]
[1]
  Assay 3 (SIF) (% @ Remaining 4 hours): A (<25% of the tested compound remaining)

## O=C(Cc1c[nH]c2ccccc12)O[C@H]1CO[C@H]2[C@@H]1OC[C@H]2OC(=O)Cc1c[nH]c2ccccc12 [Example 109, [(3S,3aR,6R,6aR)-6-[2-(1H-indol-3-yl)acetyl]oxy-2,3,3a,5,6,6a-hexahydrofuro[3,2-b]furan-3-yl] 2-(1H-indol-3-yl) acetate]
[1]
  Assay 3 (SIF) (% @ Remaining 4 hours): A (<25% of the tested compound remaining)

## CCCC(=O)O[C@@H]1[C@@H](OC(=O)CCC)[C@H](Oc2ccccc2C(=O)O)OC[C@H]1OC(=O)CCC [Example 120, 2-[(2S,3R,4S,5R)-3,4,5-tri(butanoyloxy)tetrahydropyran-2-yl]oxybenzoic acid]
[1]
  Assay 3 (SIF) (% @ Remaining 4 hours): A (<25% of the tested compound remaining)

## CCCC(=O)O[C@@H]1[C@@H](OC(=O)CCC)[C@@H](Oc2ccc(N)cc2C(=O)O)OC[C@@H]1OC(=O)CCC [Example 121, 5-amino-2-[(2R,3R,4S,5S)-3,4,5-tri(butanoyloxy)tetrahydropyran-2-yl]oxy-benzoic acid]
[1]
  Assay 3 (SIF) (% @ Remaining 4 hours): C (>75% of the tested compound remaining)

## CCC(=O)O[C@H]1[C@H](OC(=O)CC)COC(OC(=O)CCc2c[nH]c3ccccc23)[C@@H]1OC(=O)CC (stereo partly drawn) [Example 168, [(3R,4S,5R)-3,4,5-tri(propanoyloxy)tetrahydropyran-2-yl] 3-(1H-indol-3-yl)propanoate]
[2]
  Assay 2 (SGF) (% Remaining @ 4 hours): C (>75% of the tested compound remaining)
